Source: patent US20250009743A1, “METHODS OF TREATING CANCERS USING STING AGONISTS” (Dana-Farber Cancer Institute, Inc., priority 2021, published 2025)

Legend:
DF101 PDX = test: DF101 ovarian PDX in NSG mice; format: in vivo, human
Excerpt: For the PDX in vivo experiments, about 3×10^6 PDX tumor cells were mixed with 3×10^6 human bone marrow mononuclear cells in serum-free DMEM/F12 medium containing 50% Matrigel (CAT #70001, […] Technology) and intraperitoneally transplanted into NOD/SCID IL2Rgnull mice (NSG, The Jackson Laboratory). About three weeks after injection, PDX-bearing mice were equivalently divided into 4 groups according to the luminescent intensity and treated with vehicle control, olaparib, MSA-2 and olaparib in combination with MSA-2 using the same dosing and schedule that have been described above. Ascites was harvested for analysis after three weeks' treatment.
Tumors were chopped and digested in collagenase buffer as described previously (Ding et al., 2018 Cell Rep 25, 2972-2980.e2975). Single cell suspensions of tumor and ascites were obtained by filtering through 70 um strainers and treated with 1× eBioscience RBC lysis buffer (Thermo Fisher) before staining. Single cells suspensions were incubated with LIVE/DEAD Fixable Aqua Dead Cell Stain (Life Technologies, Cat #L34965) for 30 min and then blocked with anti-CD16/32 (Biolegend, clone 93) for 20 min on ice. Samples were then incubated with appropriate antibodies for 30 min on ice. Foxp3 staining buffer set (eBioscience, Cat #00-5523-00) was applied for intracellular markers staining. For the intracellular cytokine analysis, cells were stimulated with Leukocyte Activation Cocktail (BD Biosciences, Cat #550583) at 37° C. for 4-6 hours prior to FACS staining. […] Flow cytometry was performed on an LSRII (BD Biosciences) or Fortessa HTS (BD Biosciences) at DFCI Flow Cytometry Core, and all the data were analyzed using FlowJo software.

[1] = test system: TAMs co-cultured with CD8^+ T cells; test: Co-culture of TAMs with CD8^+ T cells; format: cell-based, mouse; details: TAMs pre-treated with MSA-2 33 μM, washed off; FIG. 34A
Procedure: Tumor associated macrophages (TAMs) were isolated from ETP tumors using a mouse CD11b^+ myeloid cell isolation kit (StemCell, #18970) and seeded in 48-well plate at the density of 1×10^5 cells/well, cultured in DMEM growth medium (DMEM+10% FBS+100 μg/mL penicillin-streptomycin) supplemented with 10 ng/ml mouse M-CSF (BioLegend, #576404) and allowed to adhere overnight. TAMs were then treated with or without MSA-2 at the concentration of 33 μM in the median mentioned above for 2 days. MSA-2 was washed off before coculturing TAM with CD8^+ T cells. Mouse CD8^+ T cells were isolated from spleens of FVB/NJ mice using a mouse CD8+ T cell isolation kit (StemCell, #19853) and seeded in the same 48-well plate at the density of 1×10^5 cells/well, cultured alone or cocultured with TAMs in RPMI 1640 supplemented with 10% FBS, 10 ng/ml mouse M-CSF (BioLegend, #576404), 0.055 mM 2-mercaptoethanol, 2 ng/ml IL-2 (Peprotech), 2.5 ng/ml IL-7 (Peprotech) and 50 ng/ml IL-15 (Peprotech) for 2 days. After that, T cells were collected for flow cytometry analysis.

[2] = test system: BP-sgControl and BP-sgSTING cells; test: CellTiter-Glo cell viability of BP-sgControl and BP-sgSTING cells; format: cell-based, mouse; details: effect of loss of tumor cell-intrinsic STING; three days; FIG. 11B
Procedure: Tumor cells were seeded in 96-well plates at a density of 5000 cells per well and allowed to adhere overnight. Cells were then treated for 72 hours with indicated drugs at the concentrations shown. Cell viability was measured using CellTiter-Glo® 2.0 Cell Viability Assay (Promega, #G9242) according to the manufacturer's instruction. Growth inhibition was calculated by comparing the […] of drug-treated wells to that of untreated controls 1 set at 100%. Dose response curves and IC50 values were generated using a non-linear regression model in GraphPad Prism 8.

PBM-R tumor cells = test: Measurement of IC50 value in PBM-R tumor cells (CellTiter-Glo); format: cell-based, mouse
Procedure: (§1) Tumor cells were seeded in 96-well plates at a density of 2000-3000/well and allowed to adhere overnight. Cells were then exposed to appropriate concentrations of therapeutic agents (or vehicle control) with continuous exposure for 72 h. Growth inhibition was measured by CellTiter-Glo® 2.0 Cell Viability Assay from Promega according to manufactory's introduction. IC50 values were calculated using non-linear regression model (logarithmic inhibitor vs. normalized response-variable slope) in Graphpad Prism 9.

PBM tumor cells [3] = test: Measurement of IC50 value in PBM tumor cells (CellTiter-Glo); format: cell-based; details: Mus musculus; reference value for the PBM-R3 fold; 72 h
Procedure: as §1

PBM tumor cells [4] = test: Cytokine array of medium of PBM cells; format: cell-based, mouse; details: olaparib-treated PBM cells; FIG. 19F
Procedure: The PBM tumor cells were cultured in 6-well plate for 24 hrs and treated with olaparib or vehicle control. Drug was removed after 24 hrs' treatment, and cells were cultured in fresh medium for another 48 hrs. Cell culture supernatants were obtained by centrifugation at 1,500 g for 5 min at 4° C. to remove all the debris and cells then subjected to Cytokine array analysis (ARY028, R&D system) according to manufactories introduction. Briefly, the cell culture supernatants were mixed with a cocktail of biotinylated detection antibodies, and then incubated with the Mouse Cytokine Array. The array was then incubated with streptavidin-horseradish peroxidase followed by chemiluminescent detection. Array images were analyzed using the Image J software.

## COc1cc2cc(C(=O)CCC(=O)O)sc2cc1OC [MSA-2]
DF101 PDX; FIG. 26
  tumor response compared to DF86 PDX tumors: less responsive
DF101 PDX; FIG. 26C-E
  TAM phenotype in ascites: reprogramed M2-like TAMs to M1-like
  proportion of TAMs in ascites: greatly decreased
[1]
  TAM-mediated suppression of CD8^+ T cells (cytokine production): reversed TAM-mediated suppression of CD8^+ T cells

## O=C(c1cc(Cc2n[nH]c(=O)c3ccccc23)ccc1F)N1CCN(C(=O)C2CC2)CC1 [olaparib]
[2]
  sensitivity to olaparib in vitro (cell viability): did not affect sensitivity
PBM-R tumor cells; 11 out of 12 PBM-R lines sensitive in vitro, FIG. 15C
  IC50 values of 11 out of 12 PBM-R tumor lines: comparable to PBM tumor cells
PBM-R tumor cells; Mus musculus, PBM-R3 tumor cells, 72 h, FIG. 15C
  IC50: 4190 nM
PBM-R tumor cells; PBM-R3 IC50 relative to 0.56 μM
  IC50 fold: 7.48 folds
PBM tumor cells [3]
  IC50: 560 nM
PBM tumor cells [4]
  STAT3-regulated chemokines (CCL2, CX3CL1, CCL20 and CXCL1) in CM: significantly increased
